# From ChEMBL document CHEMBL5528067, “From Synergy to Monotherapy: Discovery of Novel 2,4,6-Trisubstituted Triazine Hydrazone Derivatives with Potent Antifungal Potency In Vitro and In Vivo” (J Med Chem, 2024)
# Active and inactive are the calls of the source. The calls are words filed in the database; no cut-off is given here.
# Experiments:
# Candida albicans [1] = test: Upregulation of SAP2 gene expression in Candida albicans SC5314 assessed as fold increase at 4 microg/ml by real time RT-PCR analysis relative to control; type: functional; conditions: dose 4.0 µg/ml
# Candida albicans [2] = test: Suppression of ALS1 gene expression in Candida albicans SC5314 at 4 to 8 microg/ml by real time RT-PCR analysis; type: functional; conditions: dose 4-8 µg/ml
# [Candida] auris = Antifungal activity against FCZ-resistant Candida auris 918 assessed as growth inhibition measured after 48 hrs incubation by CLSI based micro-dilution broth method; type: functional; conditions: Candidozyma auris
# Candida albicans [3] = test: Antifungal activity against FCZ-resistant Candida albicans SC5314 assessed as growth inhibition measured after 48 hrs incubation by CLSI based micro-dilution broth method; type: functional
# Candida albicans [4] = test: Antibiofilm activity against Candida albicans SC5314 assessed as inhibition of biofilm formation incubated for 24 hrs by XTT/menadione reduction assay; type: functional, organism-based; conditions: dose 1-64 µg/ml
# Candida albicans [5] = test: Antifungal activity against FCZ-resistant Candida albicans strain 901 assessed as growth inhibition measured after 48 hrs incubation by CLSI based micro-dilution broth method; type: functional
# Candida albicans [6] = test: Antifungal activity against FCZ-resistant Candida albicans strain 901 assessed as growth inhibition in presence of fluconazole measured after 48 hrs incubation by CLSI based micro-dilution broth method; type: functional
# Cryptococcus neoformans = test: Antifungal activity against Cryptococcus neoformans 32609 assessed as growth inhibition measured after 48 hrs incubation by CLSI based micro-dilution broth method; type: functional
# Candida albicans [7] = test: Induction of cell wall component change in Candida albicans SC5314 assessed as change in chitin content by measuring […] fluorescence intensity at 4 microg/ml measured after 12 hrs by confocal laser-scanning microscopy; type: functional, organism-based; conditions: dose 4.0 µg/ml
# Pichia kudriavzevii = test: Antifungal activity against Candida krusei 4996 assessed as growth inhibition measured after 48 hrs incubation by CLSI based micro-dilution broth method; type: functional
# [8] = Volume of distribution at steady state in Sprague-Dawley rat at 2 mg/kg, iv measured upto 24 hrs by LC-MS/MS analysis; type: ADME, organism-based; conditions: in vivo, read-out: Vdss
# Candida albicans [9] = test: Induction of cell wall component change in Candida albicans SC5314 assessed as thinner mannan layer at 4 microg/ml measured after 12 hrs by transmission electron microscopy; type: functional, organism-based; conditions: dose 4.0 µg/ml
# Candida albicans [10] = test: Upregulation of EFG1 gene expression in Candida albicans SC5314 assessed as fold increase at 4 microg/ml by real time RT-PCR analysis relative to control; type: functional; conditions: dose 4.0 µg/ml
# Candida albicans [11] = test: Antibiofilm activity against Candida albicans SC5314 assessed as inhibition of biofilm formation at 64 microg/ml incubated for 24 hrs by XTT/menadione reduction assay relative to control; type: functional; set-up: scale not given: the % may be the effect or the level left; conditions: dose 64 µg/ml
# [12] = Hemolytic activity in rabbit Red blood cell assessed as hemolysis rate at 64 microg/ml incubated for 1 hr; type: toxicity, cell-based, Oryctolagus cuniculus, Erythrocyte; conditions: red blood cells, at 64 µg/mL, read-out: Activity
# [13] = Clearance in Sprague-Dawley rat at 2 mg/kg, iv measured upto 24 hrs by LC-MS/MS analysis; type: ADME, organism-based; conditions: in vivo
# Candida albicans [14] = test: Antifungal activity against FCZ-resistant Candida albicans strain 904 assessed as growth inhibition measured after 48 hrs incubation by CLSI based micro-dilution broth method; type: functional
# Candida albicans [15] = test: Antifungal activity against FCZ-resistant Candida albicans 10231 assessed as growth inhibition measured after 48 hrs incubation by CLSI based micro-dilution broth method; type: functional
# Candida albicans [16] = test: Antifungal activity against FCZ-resistant Candida albicans strains assessed as growth inhibition in presence of FCZ measured after 48 hrs incubation by CLSI based micro-dilution broth method; type: functional
smiles,measurement,setting,value
O=[N+]([O-])c1ccc(O)c(/C=N/Nc2nc(NCc3ccc(F)cc3)nc(NCc3ccc(F)cc3)n2)c1,fold change (FC),Candida albicans [1],1.86
same,Activity,Candida albicans [2],Active
same,MIC80,[Candida] auris,2 µg/mL
same,MIC80,Candida albicans [3],4 µg/mL
same,Activity,Candida albicans [4],Dose-Dependent Effect
same,MIC80,Candida albicans [5],2 µg/mL
same,MIC80,Candida albicans [6],0.25 µg/mL
same,MIC80,Cryptococcus neoformans,1 µg/mL
same,Activity,Candida albicans [7],Active
same,MIC80,Pichia kudriavzevii,1 µg/mL
same,Vd,[8],1.08 L/kg
same,Activity,Candida albicans [9],Active
same,fold change (FC),Candida albicans [10],2.56
same,Activity,Candida albicans [11],70%
same,"hemolysis at 1 h, 64 microg/ml",[12],4.92%
same,clearance,[13],22.9 mL/min/kg
same,MIC80,Candida albicans [14],1 µg/mL
same,MIC80,Candida albicans [15],16 µg/mL
same,MIC80,Candida albicans [16],0.5 µg/mL
